According to patent publication US20070207104A1, “Antimicrobial esters” (priority 2006, published 2007):
Like-named read-outs stand apart in the source and are kept apart here.

Assays:
[1] = test system: Fungi: Candida albicans, Asperillus niger and Penicillium notatum; test: Minimal inhibitory concentration, agar dilution (Mueller-Hinton), fungi; type: cell-based
Description: (§1) The minimal inhibitory concentration of the composition was determined based on methods as described in the United States Pharmacopiea, National Formulary (“USP, NF”), NF 18, 1995, Microbial Assays and Journal of Applied Microbiology 89(2): 275-279 by testing microorganisms for their ability to produce visible growth on a series of agar plates containing dilutions of the composition. Mueller-Hinton is the agar medium used in these studies. Dilutions of materials to be tested were made directly into warm molten agar as described below to achieve the final concentration range (0-6%) shown in the Tables below.
(§2) Agar was prepared as recommended by the manufacturer. Sterilized agar was allowed to cool to 50° C. in a water bath and dispensing an appropriate amount into sterile containers. The agent being tested was added to the agar and thoroughly mixed. Plates were then poured and allowed to solidify at room temperature. All plates were used immediately and not stored.
(§3) Broth cultures (24 hours) were adjusted photometrically to give 10^7 CFU/ml (colony forming units/ml) and the plates were inoculated within 30 minutes of standardizing the inoculum. A standard inoculating loop was used to deliver and spread the inoculum on the plates. Plates were allowed to dry at room temperature before inverting and incubation. Bacterial plates were incubated at 35° C. for 48 hours while fungal plates were incubated at 25° C. for 72 hours. All plates were visually inspected immediately following incubation and the results recorded.
(§4) The organisms tested were the following: Gram-positive bacteria: Staphylococcus aureus, and Bacillus subtilis; Gram-negative bacteria: Escherichia coli and Pseudomonas aeruginosa; and Fungi: Candida albicans, Asperillus niger and Penicillium notatum.
(§5) The effects of the structure of the polyhydric alcohol, the structure of the carboxylic acid and the extent of alkoxylation on antimicrobial activity were determined using the MIC assay as described in Example 1. The results below are expressed as the concentration (%) of agent corresponding to the MIC for each group of organisms tested.

[2] = test system: Gram-positive and Gram-negative organisms as well as fungi; test: Antimicrobial activity in the MIC assay, all groups of organisms tested; type: cell-based
Description: as §1, §2
Broth cultures (24 hours) were adjusted photometrically to give 10^7 CFU/ml (colony forming units/ml) and the plates were inoculated within 30 minutes of standardizing the inoculum. A standard inoculating loop was used to deliver and spread the inoculum on the plates. Plates were allowed to dry at room temperature before inverting and incubation. Bacterial plates were incubated at 35° C. for 48 hours while fungal plates were incubated at 25° C. for 72 hours. All plates were visually inspected immediately following incubation and the results recorded. […]
as §5

[3] = test system: Gram-negative bacteria: Escherichia coli and Pseudomonas aeruginosa; test: Minimal inhibitory concentration, agar dilution (Mueller-Hinton), Gram-negative bacteria; type: cell-based; conditions: for Minimum Inhibitory Concentration (MIC): Gram Negative Bacteria Escherichia coli, Pseudomonas aeruginosa; for visible growth on agar plates: Gram Negative Organisms, concentration 0.3 %
Description: as §1, §2, §3, §4, §5

[4] = test system: Gram-positive bacteria: Staphylococcus aureus, and Bacillus subtilis; test: Minimal inhibitory concentration, agar dilution (Mueller-Hinton), Gram-positive bacteria; type: cell-based; conditions: for Minimum Inhibitory Concentration (MIC): Gram Positive Bacteria Staphylococcus aureus, Staphlyococcus epidermidis, Bacillus subtilis; for visible growth on agar plates: Gram Positive Organisms, concentration 0.3 %
Description: Mueller-Hinton is the agar medium used in these studies. Dilutions of materials to be tested were made directly into warm molten agar as described below to achieve the final concentration range (0-6%) shown in the Tables below.
as §2
A standard inoculating loop was used to deliver and spread the inoculum on the plates. Plates were allowed to dry at room temperature before inverting and incubation. Bacterial plates were incubated at 35° C. for 48 hours while fungal plates were incubated at 25° C. for 72 hours. All plates were visually inspected immediately following incubation and the results recorded.
as §4
The results below are expressed as the concentration (%) of agent corresponding to the MIC for each group of organisms tested.

[5] = Solubility in water / oil; type: physicochemical
HLB value = type: physicochemical
[6] = Safety testing: neat material on forearm of human volunteers under occlusive conditions for 48 hours; type: in vivo; set-up: key to dermal response score (6-point scale): 0=No evidence of any effect; +=Barely perceptible (Minimal, faint, uniform or spotty erythema); 1=Mild (Pink, uniform erythema covering most of the contact site); 2=Moderate (Pink-red erythema uniform in the entire contact site); 3=Marked (Bright re erythema with/without petechiae or papules); 4=Severe (Deep red erythema with/without vesiculation or weeping)
Description: The safety of G-18-O was tested using the neat (undiluted) material applied to the forearm of 51 human volunteers under occlusive conditions for 48 hours. These conditions are particularly aggressive, especially when compared with those in the prior art, where data on safety, if disclosed at all, is generally anecdotal using low concentrations of the agent. The dermal responses for G-18-O were scored by expert evaluators under clinical conditions according to the following 6-point scale: • 0=No evidence of any effect; • +=Barely perceptible (Minimal, faint, uniform or spotty erythema); • 1=Mild (Pink, uniform erythema covering most of the contact site); • 2=Moderate (Pink-red erythema uniform in the entire contact site); • 3=Marked (Bright re erythema with/without petechiae or papules); and • 4=Severe (Deep red erythema with/without vesiculation or weeping).

Compound	Minimum Inhibitory Concentration (MIC) [1]	Minimum Inhibitory Concentration (MIC) [3]	Minimum Inhibitory Concentration (MIC) [4]	also measured
Glycereth-18 [reference compound]	>=6%	>=6%	>=6%	antimicrobial activity [2]: no activity
CCCCCCCC(=O)OCC(O)CO (centres unmarked) [Glyceryl Caprylate, reference compound]				oil solubility [5]: substantially oil soluble; visible growth on agar plates [3]: 50%; visible growth on agar plates [4]: 50%
Glycereth-18 Ethylhexanoate [G-18-O]	1.5%	0.6%	0.6%	HLB value (HLB value): greater than 10; antimicrobial activity [2]: effective antimicrobial agent; antimicrobial activity ([2]; listed as G-18-0): essentially equal to that of glyceryl caprylate; water solubility [5]: very water soluble; water solubility ([5]; listed as G-18-0): substantially water-soluble; water solubility ([5]; listed as Glycereth-18 ethylhexanoate): very water-soluble; dermal response score (6-point scale) ([6]; forearm of 51 human volunteers, occlusive, all panelists): 0; skin irritation ([6]; intimate contact with skin, occlusive conditions): totally non-irritating; visible growth on agar plates [3]: 50%; visible growth on agar plates [4]: 50%
Glycereth-40 Ethylhexanoate	1.5%	3%	3%	
Glycereth-18 Laurate	>=6%	0.6%	0.6%	
Propylene Glycol-18 Ethylhexanoate	1.5%	>=6%	>=6%	
Glycereth-18 Pelargonate	1.5%	>=6%	>=6%	
Glycereth-20 Ethylhexanoate	3%	3%	3%	
Glycereth-7 Ethylhexanoate	1.5%	3%	3%	
Glycereth-18 Benzoate	>=6%	3%	3%	
